Patent US10246498B2, “Genetically encoded histone reporter allele constructs” (THE JOHNS HOPKINS UNIVERSITY, priority 2014, dated 2019)
“Also recorded” adds a separate entry of the source.

Columns and labels:
H3K4me3 in the GCL = assay: Immunofluorescence of H3K4me3 in dentate gyrus GCL after oral AR-42; format: in vivo, mouse
Description: Kmt2d^+/βGeo mice, also named Mll2Gt^(RRt024)Byg, were acquired from Bay Genomics (University of California). All experimental mice were on a mixed C57BL/6J and 129/SvEv background. Expected Mendelian ratios were observed when heterozygous animals were bred to wild-type. In heterozygous crosses, however, there was uniform embryonic lethality of homozygotes by ED12, the earliest developmental stage assayed. For treatment with AR-42, mice were orally gavaged daily with drug (Selleck Chemicals, Houston, Tex.) solubilized in vehicle (0.5% methylcellulose, 0.1% Tween-80, water) or with vehicle alone. Drug delivery information was kindly provided by Drs. […] For quantification of DCX positive cells, doses of 0, 5, 10 and 25 mg/kg/day were used. […] Maxillary protrusion was evaluated by ten investigators blinded to genotype and they were asked to rate maxillary protrusion on radiographs as either large (2) or small (1). […]
Z-stack images of slides were taken at either 10× using Zeiss Axiovert 200 with 510-Meta confocal module (Carl Zeiss, Jena, GER) or 25× using Zeiss AxioExaminer with 710NLO-Meta multiphoton (Carl Zeiss, Jena, GER). From 10× pictures, the GCL was highlighted and fluorescent intensities for both DAPI and H3K4me3 were measured at the midpoint of the entire z-stack (Zen software, Carl Zeiss, Jena, GER) with the value for Kmt2d^+/+ animals set equal to one. […]

Klf10 = assay: Real-time PCR of Kmt2d target gene Klf10 in spleen cells; format: in vivo, mouse; details: spleen cells of Kmt2d+/βGeo mice
Procedure: Real-time PCR was performed using Kmt2d-specific probes for exons 20 and 52 (Mm_02600438 and Mm_01717664, respectively) from TaqMan® Gene Expression Assays (Life Technologies, Carlsbad, Calif.). For a comparison of transfection efficiencies for indicator constructs in transient transfection studies, real-time PCR was performed using SYBR Green Real-Time PCR Master Mix (Life Technologies, Carlsbad, Calif.) and primers IND-F-([…]; SEQ ID NO: 5) and IND-R-([…]; SEQ ID NO: 6) that are specific for the H3K4 methylation indicator. For expression analysis for KMT2D target gene KLF10, real-time PCR was performed using Klf10-specific expression assay (Mm00449812_m1) from TaqMan® Gene Expression Assays (Life Technologies, Carlsbad, Calif.).

CC(C)[C@H](C(=O)Nc1ccc(C(=O)NO)cc1)c1ccccc1 [AR-42]
H3K4me3 in the GCL (H3K4me3 in the GCL; 25 mg/kg/day, oral, two weeks): increased H3K4 trimethylation; also recorded: increased H3K4me3 | H3K4me3 in the GCL (H3K4me3 in the GCL; 5 and 10 mg/kg/day, both genotypes): dose-dependent increase in H3K4me3 | Klf10 expression (Klf10): normalization of expression of Klf10; also recorded: normalized
